Assay results reported in patent US20130084335A1, “IVABRADINE-CONTAINING PHARMACEUTICAL COMPOSITION” (ratiopharm GmbH, priority 2010, published 2013).

Experiments:
[1] = Stability at different temperatures and humidities in open or closed containers (polymorphic form); type: physicochemical; conditions: for Stability, summary in words: various conditions, phase transition in particular in open containers
Experimental: XRD samples were analysed on a Bruker-AXS D8 Advance powder X-Ray diffractometer. The measurement conditions were as follows: • Measurement in Bragg-Brentano-Geometry on vertical goniometer (reflection, theta/theta, 435 mm measurement circle diameter) • with sample rotation (30 rpm) on 9 position sample stage • Radiation: Cu Kα1 (1.5406 Å), Tube (Siemens FLCu2K), power 40 kV/40 mA • Detector: position sensitive detector VANTEC-1 • 3° capture angle (2theta), • Anti scatter slit 6.17 mm • Detector slit 10.39 mm • 4° soller slit, • primary beam stop (<2° 2theta) • Monochromator: None • Second β filter: Ni filter 0.1 mm (0.5%) • Start angle: 2° • End Angle: 55° • Measurement time: 11 min • Step: 0.016° 2Theta • Software: EVA (Bruker-AXS, Karlsruhe).
The stability of ivabradine adipate in comparison to ivabradine hydrochloride form I was investigated at different temperatures and humidities in open or closed containers for different storage times.

[2] = Particle size by laser diffractometry; type: physicochemical
Experimental: The term “particle size” according to the present invention relates to the maximum diameter of the equivalent product assuming spherical opaque particles showing the same light scattering pattern and the same diffraction as the active substance particles. According to the invention the particle size is determined by means of laser light diffraction. The determination of the size distribution results from the analysis of the diffraction pattern that is obtained if particles are exposed to a monochromatic light beam. The particles refract the light with small particles refracting the light in a greater angle than large particles. The refracted light is measured by a number of photo detectors arranged in different angles. On the other hand, the light spectra of the […] have to be recorded by light-sensitive detectors in greater angles over the laser beam. Large particles result in greater intensity maxima with small angles, small particles to weaker intensity maxima with greater angles. Thus, in the laser light diffraction the pattern resulting from the interaction of the light with the particles is used for the determination of the particle size.
According to the invention the particle size is determined by means of laser diffractometry. For that, a Mastersizer 2000 by Malvern Instruments having the corresponding sample dispersing unit Hydro S is used. The wet measurement (2500 rpm, ultrasound 10-20 min., shading 5 to 20%) takes place in a dispersion of sunflower oil with the particle spacing in the dispersion being about 3-5 times greater than the particle diameter.
Moreover, the Mie theory defines the secondary scattering caused by the refraction of the light on small particles, as in the international rules of the laser diffraction measurement. (ISO 13320)
The determination of the particle size for particles D50 smaller than 5.0 μm is carried out according to the Mie method and for particles D50 greater than 5.0 μm according to the Fraunhofer method.

Structure (SMILES)	Stability (crystal form after storage) ([1]; 25° C./60%, closed, 33 d)	Stability (crystal form after storage) ([1]; 25° C./60%, open, 33 d)	Stability (crystal form after storage) ([1]; 30° C./65%, closed, 33 d)	Stability (crystal form after storage) ([1]; 30° C./65%, open, 33 d)	Stability (crystal form after storage) ([1]; 40° C./75%, closed, 33 d)	Stability (crystal form after storage) ([1]; 40° C./75%, open, 33 d)	Stability, summary in words [1]	Particle size D50 [2] [μm]	Particle size D90 [2] [μm]	Stability (crystal form after storage) ([1]; 25° C./60%, closed, 57 d)	Stability (crystal form after storage) ([1]; 25° C./60%, open, 57 d)	Stability (crystal form after storage) ([1]; 30° C./65%, closed, 57 d)	Stability (crystal form after storage) ([1]; 30° C./65%, open, 57 d)	Stability (crystal form after storage) ([1]; 40° C./75%, closed, 57 d)	Stability (crystal form after storage) ([1]; 40° C./75%, open, 57 d)
COc1cc2c(cc1OC)CC(=O)N(CCCN(C)C[C@H]1Cc3cc(OC)c(OC)cc31)CC2.Cl [Ivabradine HCl form I]	unchanged	β +	unchanged	β	unchanged	β	undergoes phase transition into ivabradine HCl, form beta, or form d	19.10	44.11	–	–	–	–	–	–
COc1cc2c(cc1OC)CC(=O)N(CCCN(C)C[C@H]1Cc3cc(OC)c(OC)cc31)CC2.O=C(O)CCCCC(=O)O [Ivabradine adipate]	–	–	–	–	–	–	stable at various conditions	18.35	52.71	unchanged	unchanged	unchanged	unchanged	unchanged	unchanged
